Source: patent publication US10336730B2, “Substituted glycine derived FXIA inhibitors” (BRISTOL-MYERS SQUIBB COMPANY, priority 2015, dated 2019)

Target: T1, purified human Factor XIa (Homo sapiens, UniProt P03951)
T1 construct: purchased Haematologic Technologies
Assay: Factor XIa enzyme inhibition assay (chromogenic substrate S-2366), Ki
Assay type: biochemical
Settings: substrate S-2366, pH 7.4
Experimental: The effectiveness of compounds of the present invention as inhibitors of the coagulation Factors XIa, VIIa, IXa, Xa, XIIa, plasma kallikrein, thrombin, chemytrypsin or trypsin can be determined using a relevant purified serine protease, respectively, and an appropriate synthetic substrate. The rate of hydrolysis of the chromogenic or fluorogenic substrate by the relevant serine protease was measured both in the absence and presence of compounds of the present invention. […] A decrease in the rate of absorbance or fluorescence change in the presence of inhibitor is indicative of enzyme inhibition. Such methods are known to one skilled in the art. The results of this assay are expressed as the inhibitory constant, Ki.
Factor XIa determinations were made in 50 mM HEPES buffer at pH 7.4 containing 145 mM NaCl, 5 mM KCl, and 0.1% PEG 8000 (polyethylene glycol; JT Baker or Fisher Scientific). Determinations were made using purified human Factor XIa at a final concentration of […] (Haematologic Technologies) and the synthetic substrate S-2366 (pyroGlu-Pro-Arg-pNA; CHROMOGENIX® or AnaSpec) at a concentration of 0.0002-0.001 M.
Values of Ki were determined by allowing the protease to react with the substrate in the presence of the inhibitor. Reactions were allowed to go for periods of 20-180 minutes (depending on the protease) and the velocities (rate of absorbance or fluorescence change versus time) were measured. The following relationships were used to calculate Ki values: (Vmax*S)/(Km+S) (vo−vs)/vs=I/(Ki*(1+S/Km)) for a competitive inhibitor with one binding site; or vs/vo=A+(B−A)/(1+(IC50/(I)^n)); and Ki=IC50/(1+S/Km) for a competitive inhibitor where: […]

T1 sequence (P03951 388-625 limits assumed): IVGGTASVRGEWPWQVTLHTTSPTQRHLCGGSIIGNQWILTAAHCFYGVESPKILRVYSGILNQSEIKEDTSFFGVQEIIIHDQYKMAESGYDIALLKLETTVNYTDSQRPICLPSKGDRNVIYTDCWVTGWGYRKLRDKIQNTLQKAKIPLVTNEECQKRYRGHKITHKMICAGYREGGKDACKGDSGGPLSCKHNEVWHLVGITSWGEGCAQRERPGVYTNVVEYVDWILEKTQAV
T1 sequence (P03951 19-387 partner limits assumed): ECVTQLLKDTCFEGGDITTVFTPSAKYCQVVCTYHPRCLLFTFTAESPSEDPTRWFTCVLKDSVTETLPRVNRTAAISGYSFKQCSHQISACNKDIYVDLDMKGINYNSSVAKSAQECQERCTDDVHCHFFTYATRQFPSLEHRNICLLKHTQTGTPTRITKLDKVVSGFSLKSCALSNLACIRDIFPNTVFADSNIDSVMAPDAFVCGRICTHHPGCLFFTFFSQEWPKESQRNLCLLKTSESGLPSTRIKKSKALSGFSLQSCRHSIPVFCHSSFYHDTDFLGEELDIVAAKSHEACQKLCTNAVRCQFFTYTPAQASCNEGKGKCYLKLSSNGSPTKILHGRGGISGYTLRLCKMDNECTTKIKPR

Q: Which Ki does the source give for CN1CCN(C(=O)[C@H](Cc2ccccc2)n2cnc(-c3cc(Cl)ccc3-n3cc(Cl)nn3)cc2=O)CC1 [Example 68, (S)-6-(5-chloro-2-(4-chloro-1H-1,2,3-triazol-1-yl)phenyl)-3-(1-(4-methylpiperazin-1-yl)-1-oxo-3-phenylpropan-2-yl)pyrimidin-4(3H)-one] here?
A: The Ki was 4410 nM.

Q: How did the Ki turn out when O=C(NCCN1CCCC1)[C@H](Cc1ccccc1)n1cnc(-c2cc(Cl)ccc2-n2cc(Cl)nn2)cc1=O [Example 69, (S)-2-(4-(5-chloro-2-(4-chloro-1H-1,2,3-triazol-1-yl)phenyl)-6-oxopyrimidin-1(6H)-yl)-3-phenyl-N-(2-(pyrrolidin-1-yl)ethyl)propanamide] was run?
A: The Ki was 7620 nM.

Q: For O=C(NCc1ccccn1)[C@H](Cc1ccccc1)n1cnc(-c2cc(Cl)ccc2-n2cc(Cl)nn2)cc1=O [Example 70, (S)-2-(4-(5-chloro-2-(4-chloro-1H-1,2,3-triazol-1-yl)phenyl)-6-oxopyrimidin-1(6H)-yl)-3-phenyl-N-(pyridin-2-ylmethyl)propanamide], which Ki is on record?
A: Its Ki is 931 nM.

Q: For O=C([C@H](Cc1ccccc1)n1cnc(-c2cc(Cl)ccc2-n2cc(Cl)nn2)cc1=O)N1CCc2ccccc2C1 [Example 71, (S)-6-(5-chloro-2-(4-chloro-1H-1,2,3-triazol-1-yl)phenyl)-3-(1-(3,4-dihydroisoquinolin-2(1H)-yl)-1-oxo-3-phenylpropan-2-yl)pyrimidin-4(3H)-one], which Ki is on record?
A: The Ki was 790 nM.

Q: With O=C([C@H](Cc1ccccc1)n1cnc(-c2cc(Cl)ccc2-n2cc(Cl)nn2)cc1=O)N1CCC(Cc2ccccc2)CC1 [Example 72, (S)-3-(1-(4-benzylpiperidin-1-yl)-1-oxo-3-phenylpropan-2-yl)-6-(5-chloro-2-(4-chloro-1H-1,2,3-triazol-1-yl)phenyl)pyrimidin-4(3H)-one] as the compound, how does the Ki read?
A: The Ki was 13300 nM.

Q: How did the Ki turn out when O=C([C@H](Cc1ccccc1)n1cnc(-c2cc(Cl)ccc2-n2cc(Cl)nn2)cc1=O)N1CCC(c2ccccc2)CC1 [Example 73, (S)-6-(5-chloro-2-(4-chloro-1H-1,2,3-triazol-1-yl)phenyl)-3-(1-oxo-3-phenyl-1-(4-phenylpiperidin-1-yl)propan-2-yl)pyrimidin-4(3H)-one] was run?
A: The Ki was 4440 nM.

Q: With O=C(NCc1ccncc1)[C@H](Cc1ccccc1)n1cnc(-c2cc(Cl)ccc2-n2cc(Cl)nn2)cc1=O [Example 74, (S)-2-(4-(5-chloro-2-(4-chloro-1H-1,2,3-triazol-1-yl)phenyl)-6-oxopyrimidin-1(6H)-yl)-3-phenyl-N-(pyridin-4-ylmethyl)propanamide] as the compound, how does the Ki read?
A: The Ki was 552 nM.

Q: For COc1ccc(CNC(=O)[C@H](Cc2ccccc2)n2cnc(-c3cc(Cl)ccc3-n3cc(Cl)nn3)cc2=O)cc1 [Example 75, (S)-2-(4-(5-chloro-2-(4-chloro-1H-1,2,3-triazol-1-yl)phenyl)-6-oxopyrimidin-1(6H)-yl)-N-(4-methoxybenzyl)-3-phenylpropanamide], which Ki is on record?
A: The Ki was 1220 nM.

Q: O=C(NCc1ccc(Cl)cc1)[C@H](Cc1ccccc1)n1cnc(-c2cc(Cl)ccc2-n2cc(Cl)nn2)cc1=O [Example 76, (S)-2-(4-(5-chloro-2-(4-chloro-1H-1,2,3-triazol-1-yl)phenyl)-6-oxopyrimidin-1(6H)-yl)-N-(4-chlorobenzyl)-3-phenylpropanamide] was tested. Which Ki did it give?
A: The Ki was 1220 nM.

Q: With O=C(NCc1cccnc1)[C@H](Cc1ccccc1)n1cnc(-c2cc(Cl)ccc2-n2cc(Cl)nn2)cc1=O [Example 77, (S)-2-(4-(5-chloro-2-(4-chloro-1H-1,2,3-triazol-1-yl)phenyl)-6-oxopyrimidin-1(6H)-yl)-3-phenyl-N-(pyridin-3-ylmethyl)propanamide] as the compound, how does the Ki read?
A: Its Ki is 1450 nM.

Q: Which Ki does the source give for O=C([C@H](Cc1ccccc1)n1cnc(-c2cc(Cl)ccc2-n2cc(Cl)nn2)cc1=O)N1CCOCC1 [Example 78, (S)-6-(5-chloro-2-(4-chloro-1H-1,2,3-triazol-1-yl)phenyl)-3-(1-morpholino-1-oxo-3-phenylpropan-2-yl)pyrimidin-4(3H)-one] here?
A: The Ki was 4450 nM.
